Measurements taken from patent US20240293405A1, “(1H-PYRROLO[2,3-B]PYRIDIN-1-YL)PYRIMIDIN-2-YL-AMINO-PHENYL-ACRYLAMIDE INHIBITORS OF EGFR FOR USE IN THE TREATMENT OF BRAIN TUMORS” (Dana-Farber Cancer Institute, Inc., priority 2021, published 2024).
Values joined by “and” are separate entries in the source; they are usually repeats but may differ in a detail not shown here. Identical values can stand only once. “Also recorded” adds a separate entry of the source. Like-named read-outs stand apart in the source and are kept apart here.

Assays:
EGFRvIII = EGFRvIII (Homo sapiens, UniProt P00533, DELINS30-297G); test: EGFRvIII phosphorylation in 293-EGFRvIII cells (western blot); format: cell-based; design: expressed in transfected cells; conditions: 6 hours, read-out: IC50 on EGFRvIII phosphorylation (pEGFRvIII1068)
[1] = biological target: EGFR(L747-S752del, P753S) (Homo sapiens, UniProt P00533, DEL747-752/P753S); test: Kinase binding constant (Kd)
From the text: (§1) EGFR amplifications and/or mutations are common in GBM, estimated to occur in over 50% of patients.

EGFR(L747-T751del,Sins) = EGFR(L747-T751del,Sins) (Homo sapiens, UniProt P00533, DELINS747-751S); test: Kinase binding constant (Kd)
From the text: as §1

[2] = biological target: EGFR(L747-E749del, A750P) (Homo sapiens, UniProt P00533, A750P/DEL747-749); test: Kinase binding constant (Kd)
From the text: as §1

EGFR(T790M) = EGFR(T790M) (Homo sapiens, UniProt P00533, T790M); test: Kinase binding constant (Kd)
From the text: as §1

EGFR(L858R,T790M) = EGFR(L858R,T790M) (Homo sapiens, UniProt P00533, L858R/T790M); test: Kinase binding constant (Kd)
From the text: as §1

EGFR = EGFR (Homo sapiens, UniProt P00533); test: Kinase binding constant (Kd)
From the text: as §1

EGFR(G719C) = EGFR(G719C) (Homo sapiens, UniProt P00533, G719C); test: Kinase binding constant (Kd)
From the text: as §1

EGFR(L861Q) = EGFR(L861Q) (Homo sapiens, UniProt P00533, L861Q); test: Kinase binding constant (Kd)
From the text: as §1

EGFR(G719S) = EGFR(G719S) (Homo sapiens, UniProt P00533, G719S); test: Kinase binding constant (Kd)
From the text: as §1

EGFR(S752-I759del) = EGFR(S752-I759del) (Homo sapiens, UniProt P00533, DEL752-759); test: Kinase binding constant (Kd)
From the text: as §1

EGFR(L858R) = EGFR(L858R) (Homo sapiens, UniProt P00533, L858R); test: Kinase binding constant (Kd)
From the text: as §1

ERBB4 = ERBB4 (Homo sapiens, UniProt Q15303); test: Kinase binding constant (Kd)
From the text: as §1

ERBB2 = ERBB2 (Homo sapiens, UniProt P04626); test: Kinase binding constant (Kd)
From the text: as §1

EGFR(E746-A750del) = EGFR(E746-A750del) (Homo sapiens, UniProt P00533, DEL746-750); test: Kinase binding constant (Kd)
From the text: as §1

[3] = Cardiovascular function (telemetry); format: in vivo, dog
Experimental: This arrythmia was not associated with maximum plasma concentration (Cmax) or Tmax of either parent or metabolite. No definitive link to the test article could be identified. Given the unexplained reversible arrythmia in this high-dose (100 mg/kg) telemetry dog, routine electrocardiogram (ECG) monitoring in Phase 1 is recommended.

[4] = PC-9 SQ lung tumor xenograft in NOD.SCID mice; format: in vivo; conditions: mouse, plasma, PC-9 model, 4 hours post-dose, oral, read-out: plasma concentration at which anti-tumor activity was noted
Experimental: Compound 1 was also evaluated in xenograft models of lung tumor cell lines harboring EGFR single and double mutations in the mouse.

U251-EGFRvIII cells = test: Viability/proliferation of U251-EGFRvIII cells; format: cell-based, human
Experimental: Cells were seeded in 96-well plates at a density of 1,000 cells per well and treated with two-fold serial dilutions of compounds with a starting concentration of 20 μM. Cell viability was assessed after three days of treatment by CellTiter-Glo (Promega). Curve fitting analysis and IC50 value determination were performed using GraphPad Prism 8.
In parallel, the conventional human GBM U251 cell line was used as a surrogate model for both in vitro and in vivo studies. U251 cells were engineered to stably express EGFRvIII (U251-EGFRvIII) via retroviral-mediated gene transfer.

Respiratory rate = format: in vivo; conditions: dog, PO up to 100 mg/kg
CYP3A4/3A5 = test: CYP phenotyping, human liver microsomes; format: in vitro ADME
From the text: Metabolism, inhibition and induction were not observed with other CYPs. Potential DDI interactions exist with drugs that are inhibitors of CYP3A4-T or those metabolized by CYP3A4/3A5; these DDI risks will be better defined once there are human pharmacokinetics (PK) data.

[5] = system: broad human receptor profile; test: Receptor selectivity screen; format: binding; conditions: 10 μM free base
Experimental: (§2) Compound 1 and/or Compound 2 (active/major metabolite) were evaluated for off-target activity in a large panel of receptors and ion channels, including a human ether-i-go-go-related gene (hERG) assay. Compound 1 was assessed comprehensively in Good Laboratory Practice (GLP) safety pharmacology studies, including studies of cardiovascular, respiratory and central nervous system function.

hERG = hERG (Homo sapiens, UniProt Q12809); test: hERG assay (HEK cells); format: cell-based
Experimental: as §2

[6] = Comparative metabolism and metabolic stability in hepatocytes; format: in vitro ADME, human, monkey, dog, rat and mouse
From the text: Compound 2 was a major demethylated active metabolite in all species and with the exception of a minor metabolite, M48 in human hepatocytes, all human metabolites were represented in the rat and/or dog, the toxicology species.

[7] = system: PC-9 cells (EGFR exon 19 deletion); test: Cell viability assay, PC-9 (CellTiter-Glo); format: cell-based; conditions: Homo sapiens, PC-9; read-out: IC50, cell viability
From the text: CellTier-Glo (Promega) assay kit (https://www.promega.com/resources/protocols/technical-bulletins/0/celltiter-glo-luminescentcell-viability-assay-protocol/) was used here.

BT112 cells = test: Cell viability, patient-derived GBM line BT112; conditions: Homo sapiens, 72 h
Experimental: Primary human glioblastoma lines BT112, BT179 and BT333 were maintained in NeuroCult proliferation medium (human) (StemCell Technologies) with 20 ng/ml EGF, 10 ng/ml FGF and 0.0002% Heparin.

hERG, sequence (Q12809 whole entry): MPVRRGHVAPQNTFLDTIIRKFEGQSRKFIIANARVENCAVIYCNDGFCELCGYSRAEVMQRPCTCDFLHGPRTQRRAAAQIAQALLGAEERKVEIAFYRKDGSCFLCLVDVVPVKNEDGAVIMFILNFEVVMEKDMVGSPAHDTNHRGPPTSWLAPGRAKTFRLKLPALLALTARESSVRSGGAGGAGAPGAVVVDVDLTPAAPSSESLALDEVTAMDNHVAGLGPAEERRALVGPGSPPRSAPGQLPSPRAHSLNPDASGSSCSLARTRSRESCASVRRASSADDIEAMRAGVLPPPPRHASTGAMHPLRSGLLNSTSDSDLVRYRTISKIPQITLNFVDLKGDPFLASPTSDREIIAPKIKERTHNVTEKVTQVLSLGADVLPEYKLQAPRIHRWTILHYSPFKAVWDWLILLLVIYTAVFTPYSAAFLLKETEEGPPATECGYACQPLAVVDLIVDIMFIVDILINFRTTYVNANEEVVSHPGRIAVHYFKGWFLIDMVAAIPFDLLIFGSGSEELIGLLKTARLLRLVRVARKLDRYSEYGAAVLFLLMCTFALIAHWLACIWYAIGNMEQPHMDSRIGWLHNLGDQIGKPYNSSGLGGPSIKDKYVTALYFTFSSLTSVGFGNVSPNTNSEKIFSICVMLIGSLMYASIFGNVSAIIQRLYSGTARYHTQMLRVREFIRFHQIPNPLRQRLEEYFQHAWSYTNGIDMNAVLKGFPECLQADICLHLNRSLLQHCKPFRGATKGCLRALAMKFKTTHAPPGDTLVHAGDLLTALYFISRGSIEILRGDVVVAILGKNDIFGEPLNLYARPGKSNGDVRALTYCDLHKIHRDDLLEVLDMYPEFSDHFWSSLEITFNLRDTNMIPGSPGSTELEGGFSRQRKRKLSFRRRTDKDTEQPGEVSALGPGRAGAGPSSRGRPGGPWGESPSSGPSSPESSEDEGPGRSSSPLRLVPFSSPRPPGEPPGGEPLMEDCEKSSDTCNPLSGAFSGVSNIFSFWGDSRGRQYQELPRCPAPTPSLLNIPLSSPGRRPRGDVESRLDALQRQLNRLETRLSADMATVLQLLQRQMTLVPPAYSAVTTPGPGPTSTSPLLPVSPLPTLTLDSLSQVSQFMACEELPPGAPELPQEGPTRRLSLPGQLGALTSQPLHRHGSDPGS
EGFR, sequence (P00533 25-1210): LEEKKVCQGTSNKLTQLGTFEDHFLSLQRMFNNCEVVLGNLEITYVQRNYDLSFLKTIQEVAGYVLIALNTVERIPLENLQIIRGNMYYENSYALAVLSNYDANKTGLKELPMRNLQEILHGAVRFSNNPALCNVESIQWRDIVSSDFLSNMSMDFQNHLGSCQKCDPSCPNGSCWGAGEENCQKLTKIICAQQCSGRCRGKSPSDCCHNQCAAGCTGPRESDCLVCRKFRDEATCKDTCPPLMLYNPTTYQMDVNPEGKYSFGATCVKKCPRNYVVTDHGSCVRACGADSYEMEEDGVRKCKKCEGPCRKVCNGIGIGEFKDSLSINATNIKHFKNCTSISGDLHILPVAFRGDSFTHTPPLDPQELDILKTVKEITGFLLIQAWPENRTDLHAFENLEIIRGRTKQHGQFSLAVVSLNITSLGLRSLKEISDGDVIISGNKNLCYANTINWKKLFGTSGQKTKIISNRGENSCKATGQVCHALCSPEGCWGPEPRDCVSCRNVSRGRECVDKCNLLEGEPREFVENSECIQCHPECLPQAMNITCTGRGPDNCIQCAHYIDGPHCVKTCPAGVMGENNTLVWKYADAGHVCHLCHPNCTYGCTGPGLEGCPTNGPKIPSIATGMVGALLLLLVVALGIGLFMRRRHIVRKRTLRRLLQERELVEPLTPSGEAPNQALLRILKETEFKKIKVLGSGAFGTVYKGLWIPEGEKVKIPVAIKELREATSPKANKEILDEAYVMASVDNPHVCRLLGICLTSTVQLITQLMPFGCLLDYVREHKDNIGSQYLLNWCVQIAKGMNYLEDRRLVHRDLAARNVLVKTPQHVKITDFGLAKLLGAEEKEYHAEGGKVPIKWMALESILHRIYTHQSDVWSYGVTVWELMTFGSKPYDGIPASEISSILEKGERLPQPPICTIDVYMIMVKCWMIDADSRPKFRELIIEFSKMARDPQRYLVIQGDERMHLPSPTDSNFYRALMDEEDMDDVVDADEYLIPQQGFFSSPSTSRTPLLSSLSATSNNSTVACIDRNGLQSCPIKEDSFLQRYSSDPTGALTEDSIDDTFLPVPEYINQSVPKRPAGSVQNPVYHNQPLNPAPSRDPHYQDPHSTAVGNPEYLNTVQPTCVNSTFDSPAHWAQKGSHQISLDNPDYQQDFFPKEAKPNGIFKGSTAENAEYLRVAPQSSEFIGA
EGFR(L747-S752del, P753S), sequence (P00533 with tags, fused parts or gaps DEL747-752/P753S): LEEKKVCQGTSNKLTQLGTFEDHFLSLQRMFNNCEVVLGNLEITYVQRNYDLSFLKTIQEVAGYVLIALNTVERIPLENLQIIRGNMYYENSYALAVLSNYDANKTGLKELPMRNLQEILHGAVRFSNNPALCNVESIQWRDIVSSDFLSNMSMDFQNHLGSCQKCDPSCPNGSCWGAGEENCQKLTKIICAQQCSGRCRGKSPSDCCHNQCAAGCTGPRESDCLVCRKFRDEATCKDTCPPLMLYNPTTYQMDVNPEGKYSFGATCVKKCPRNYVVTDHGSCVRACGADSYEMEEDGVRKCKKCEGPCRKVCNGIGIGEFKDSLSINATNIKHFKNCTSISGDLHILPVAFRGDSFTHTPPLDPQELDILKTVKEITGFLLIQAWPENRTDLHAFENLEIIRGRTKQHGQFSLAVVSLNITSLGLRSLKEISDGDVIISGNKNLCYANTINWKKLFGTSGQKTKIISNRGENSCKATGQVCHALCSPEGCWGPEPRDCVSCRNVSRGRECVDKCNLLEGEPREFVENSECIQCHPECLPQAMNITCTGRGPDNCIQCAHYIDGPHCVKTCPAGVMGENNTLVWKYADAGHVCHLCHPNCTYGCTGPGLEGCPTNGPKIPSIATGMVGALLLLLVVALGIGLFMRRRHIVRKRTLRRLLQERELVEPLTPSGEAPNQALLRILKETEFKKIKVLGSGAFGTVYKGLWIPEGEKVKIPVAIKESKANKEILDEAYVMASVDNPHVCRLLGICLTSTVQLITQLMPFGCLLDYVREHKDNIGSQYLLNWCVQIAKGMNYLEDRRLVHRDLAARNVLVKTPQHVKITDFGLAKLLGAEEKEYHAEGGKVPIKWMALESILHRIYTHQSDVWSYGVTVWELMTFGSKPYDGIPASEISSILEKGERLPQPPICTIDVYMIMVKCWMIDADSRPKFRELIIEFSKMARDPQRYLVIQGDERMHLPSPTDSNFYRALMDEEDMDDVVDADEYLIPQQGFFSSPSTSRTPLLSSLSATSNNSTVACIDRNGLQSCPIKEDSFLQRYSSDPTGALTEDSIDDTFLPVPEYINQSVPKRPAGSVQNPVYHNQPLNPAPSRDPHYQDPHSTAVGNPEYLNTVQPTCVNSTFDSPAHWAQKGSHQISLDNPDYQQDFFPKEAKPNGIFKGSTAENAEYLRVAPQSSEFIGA
EGFR(L858R,T790M), sequence (P00533 25-1210 T790M/L858R): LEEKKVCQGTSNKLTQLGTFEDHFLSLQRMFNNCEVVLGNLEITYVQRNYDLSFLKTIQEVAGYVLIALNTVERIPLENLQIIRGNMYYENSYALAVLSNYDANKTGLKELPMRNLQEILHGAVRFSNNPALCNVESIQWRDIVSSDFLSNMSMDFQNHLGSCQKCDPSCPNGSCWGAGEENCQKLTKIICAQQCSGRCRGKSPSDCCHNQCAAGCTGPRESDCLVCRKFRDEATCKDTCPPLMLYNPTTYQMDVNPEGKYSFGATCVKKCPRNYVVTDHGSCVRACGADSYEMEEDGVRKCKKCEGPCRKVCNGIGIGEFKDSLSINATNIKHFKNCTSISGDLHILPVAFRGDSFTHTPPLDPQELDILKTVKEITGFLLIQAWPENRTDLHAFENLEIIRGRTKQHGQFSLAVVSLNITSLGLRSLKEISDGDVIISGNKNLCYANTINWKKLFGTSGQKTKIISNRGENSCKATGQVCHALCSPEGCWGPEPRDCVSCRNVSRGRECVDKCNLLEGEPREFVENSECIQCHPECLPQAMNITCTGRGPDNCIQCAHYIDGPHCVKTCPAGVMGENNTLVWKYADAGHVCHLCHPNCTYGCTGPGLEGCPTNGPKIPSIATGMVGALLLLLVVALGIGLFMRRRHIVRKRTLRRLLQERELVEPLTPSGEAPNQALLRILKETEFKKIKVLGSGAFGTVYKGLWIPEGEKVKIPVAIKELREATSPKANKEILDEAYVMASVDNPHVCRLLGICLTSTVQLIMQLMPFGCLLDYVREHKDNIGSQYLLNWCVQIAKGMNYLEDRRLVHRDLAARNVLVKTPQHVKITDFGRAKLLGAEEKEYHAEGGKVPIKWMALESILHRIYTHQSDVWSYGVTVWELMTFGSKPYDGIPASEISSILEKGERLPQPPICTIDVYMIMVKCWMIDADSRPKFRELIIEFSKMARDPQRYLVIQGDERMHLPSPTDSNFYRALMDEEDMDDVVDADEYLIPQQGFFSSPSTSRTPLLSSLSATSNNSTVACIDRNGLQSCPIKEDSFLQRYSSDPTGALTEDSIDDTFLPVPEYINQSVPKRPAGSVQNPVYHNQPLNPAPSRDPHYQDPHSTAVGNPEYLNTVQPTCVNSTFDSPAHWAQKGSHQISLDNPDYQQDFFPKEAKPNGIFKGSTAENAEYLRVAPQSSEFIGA

Work on `C=CC(=O)Nc1cc(Nc2nccc(-n3ccc4cccnc43)n2)c(OC)cc1N(C)CCN(C)C` [Compound 1, N-(5-((4-(1H-pyrrolo[2,3-b]pyridin-1-yl)pyrimidin-2-yl)amino)-2-((2-(dimethylamino)ethyl)(methyl)amino)-4-methoxyphenyl)acrylamide] yielded an IC50 (EGFRvIII) of 190 nM, a Kd [1] of 3.1 nM and a Kd (EGFR(L747-T751del,Sins)) of 2 nM. For the same compound, the Kd [2] was 0.97 nM, the Kd (EGFR(T790M)) was 0.15 nM and the Kd (EGFR(L858R,T790M)) was 0.11 nM. The “activity against wild-type EGFR” value (EGFR) was “little activity”, the Kd (EGFR; EGFR wild type) was 4.9 nM and the Kd (EGFR(G719C)) was 2.2 nM. It also gave a Kd (EGFR(L861Q)) of 3.9 nM, a Kd (EGFR(G719S)) of 1.7 nM and a Kd (EGFR(S752-I759del)) of 2.9 nM. For the same compound, the Kd (EGFR(L858R)) was 4.6 nM, the Kd (ERBB4) was 11 nM and the Kd (ERBB2) was 11 nM. The Kd (EGFR(E746-A750del)) was 0.7 nM, the “dogs with reversible ventricular conduction disturbance” value ([3]; 100 mg/kg, 10 to 24 hours after dose) was 1 of 4 and the “QTc, blood pressure and cardiac intervals” value ([3]; doses up to 100 mg/kg) was “no QTc signals; also recorded: no adverse effects on blood pressure or cardiac intervals”. The Cmax ([3]; plasma, dog, 100 mg/kg Compound 1 PO, M38 as metabolite, read-out: estimated single-dose Cmax) was 2620 ng/mL and 5.4 µM, the concentration at 4 h [4] was 1500 ng/mL and 3.1 µM and the IC50 (U251-EGFRvIII cells; Homo sapiens, values of the text and Table 9, read-out: IC50, viability of U251-EGFRvIII cells) was 1520 nM. For the same compound, the IC50 (U251-EGFRvIII cells; Homo sapiens, Table 2, read-out: IC50 on U251-EGFRvIII cell proliferation) was 1480 nM, the “cell survival, fold less than that of erlotinib” value (U251-EGFRvIII cells; U251-EGFRvIII cells) was 9 fold and the “cell survival, fold less than that of gefitinib” value (U251-EGFRvIII cells; U251-EGFRvIII cells) was 13 fold. The IC50 (U251-EGFRvIII cells; values of the text and Table 9, read-out: IC50, viability of U251-EGFRvIII cells) was 1500 nM, the “effects on respiratory rate” value (Respiratory rate) was “no adverse effects on respiratory rate” and the “primarily metabolizing CYP” value (CYP3A4/3A5) was “CYP3A4/3A5”. The “off-target risk from receptor binding studies” value [5] was “little off-target risk”, the IC50 (hERG) was 1900 nM and the “hERG IC100” value (hERG) was ~30 µM. The metabolic stability ([6]; hepatocytes, species comparison) was “greatest in human hepatocytes”, the “number of metabolites detected in hepatocytes” value ([6]; human, monkey, dog, rat and/or mouse hepatocytes) was 22 and the IC50 [7] was 62.8 nM. For the same compound, the IC50 (BT112 cells) was 2040 nM.
